Experimental data as given in patent publication US20050234531A1, “Method to treat age-related macular degeneration” (priority 2001, published 2005).

Test system: age-related macular degeneration (AMD)
Assay: PDT with verteporfin combined with scatter threshold laser coagulation therapy in eighteen patients with AMD or early stage AMD
Assay type: in vivo
Protocol: Eighteen patients ranging in age from 50-80 years of age, and either previously diagnosed with AMD or with early stage AMD have been treated using the inventive method. All of these patients experienced at least some loss of vision pre-treatment.
For PDT, verteporfin was the photosensitive agent and was administered intravenously at a dose of 1-2 mg/kg. Verteporfin was activated using a coherent laser with the red beam (krypton) at a wavelength of 640 nm. For laser coagulation therapy, the spot size was 200 μm and the duration was 0.4 seconds. The number of spots applied was between 150 and 350. The interval between PDT and laser coagulation therapy was 5 minutes to 24 hours.

Q: verteporfin was tested. Which “Patients with improved visual acuity, as assessed by accurate reading of a standard vision chart” value (verteporfin 1-2 mg/kg intravenously, activated at 640 nm, plus laser coagulation therapy 5 minutes to 24 hours apart, within six to eight weeks post-treatment, 18 patients) did it give?
A: fifty

Q: What about the “Incidence of the need for retreatment” value (verteporfin PDT plus laser coagulation therapy, entire patient population treated) of the same substance?
A: zero

Q: What about the “Patients whose vision remained stable, assessed by no further loss of visual acuity” value (verteporfin PDT plus laser coagulation therapy, over six to nine months, 18 patients) of the same substance?
A: fifty

Q: And the “Cases of laser-induced neovascularizations” value (verteporfin PDT plus laser coagulation therapy, patients receiving the inventive treatment)?
A: no cases
